Measured values taken from patent US20090148540A1, “Antibacterial composition and method of production” (MI HOPE INCORPORATED, priority 2007, published 2009).

System: MRSA
Assay: Anti-MRSA activity on dried surface areas swabbed with MRSA broth, surveyed with MRSA selective agar plates
Assay type: cell-based, Staphylococcus aureus
Details: surface areas previously swabbed with MRSA broth; treated areas dried 30 minutes; MEC DD Checker Plates; copper citrate solution (22 volts, 2.8 amps, 2 hours) diluted 1 to 10 in water
Procedure: In one protocol, the diluted copper citrate solution was applied to several dried surface areas that had been previously swabbed with an MRSA containing broth solution. The treated areas were allowed to dry over the next 30 minutes. An MRSA selective agar medium was then used to survey the areas for residual MRSA (MEC DD Checker Plates obtained from Denka Seiken, Inc., Japan). For control, similarly contaminated areas were either left untreated or exposed to the original starting 5% citric acid solution.

In the case of O=C(O)CC(O)(CC(=O)O)C(=O)O [5% citric acid solution, citric acid], the “residual MRSA growth on MRSA selective agar medium from treated surface areas” value is reported as “numerous MRSA colonies developed”.
